Here are results for 2 compounds from patent US20230332237A1, “Molecular Biomarkers for Predicting Patient Response to Steroid Therapy” (Florida State University Research Foundation, Inc., priority 2022, published 2023).

Assay [1] concerns steroid sensitive keloid fibroblasts. In words: RNA-seq differential gene expression in steroid sensitive keloid fibroblasts following TA treatment. Format: cell-based, human. As to conditions: 10 μM TA for 96 hrs vs DMSO, Padj≤0.05. The source says: (§1) Culture of keloid-derived primary fibroblasts. Surgically excised keloid and normal skin explants were obtained from patients under Florida State University institutional review board guidelines (Approved by the Human Subjects Committee (HSC) of the Florida State University Institutional Review Board; HSC numbers: 2016.19175 and 2017.22173). The explants were cut into small pieces, digested with trypsin, and washed with and cultured in Dulbecco's Modified Eagle Medium containing 10% fetal bovine serum and antibiotic/antimycotic solution maintained at 37.8° C. (98.68° F.) and 5% carbon dioxide. Outgrowth of only primary dermal fibroblasts occurred under our culture conditions, and these were recovered by trypsinization for use in experiments at low passage. The keloid fibroblasts are morphologically identical to commercially obtained normal primary human dermal fibroblasts (HDF; Cell Applications, Inc., San Diego, CA) used as our normal controls. […]
(§2) RNA extraction. […] The quality and quantity of each RNA sample was measured by Tapestation (Agilent). […]
(§3) RNA-seq. […] The RNA-seq libraries were sequenced on a NovaSeq 6000 sequencer (Illumina) to obtain 2×100 or 2×150-base reads. […] FASTQC was used to filter out reads of low to moderate quality. Paired-end reads were mapped to the GRCh38 reference genome using Salmon (28). The average mapped reads were 323M reads per sample and average mapped rate was 94.8%. […]

Assay [2] concerns steroid resistant keloid fibroblasts. In words: RNA-seq differential gene expression in steroid resistant keloid fibroblasts following TA treatment. Format: cell-based, human. The note with it: 10 μM TA for 96 hrs vs DMSO, Padj≤0.05.
Description: as §1, §2, §3

The subject of the next assay is IGFBP1. The note with it: treatment with prednisolone; literature refs 23, 24; cited from earlier work.
Another assay concerns IGFBP2. As to conditions: treatment with prednisolone; literature refs 23, 24; cited from earlier work.
In another assay the test system is IGF1. As to conditions: treatment with prednisolone; literature refs 23, 24; cited from earlier work.

SMILES strings stand for the structures.

Consider `CC1(C)O[C@@H]2C[C@H]3[C@@H]4CCC5=CC(=O)C=C[C@]5(C)[C@@]4(F)[C@@H](O)C[C@]3(C)[C@]2(C(=O)CO)O1` [TA, Triamcinolone Acetonide], for which, in assay [1], the “genes downregulated after TA treatment” value came out at 521 and the “genes upregulated after TA treatment” value was 526. Moreover, in assay [2], the “genes downregulated after TA treatment” value was found to be 106 and the “genes upregulated after TA treatment” value stood at 131.
For `C[C@]12C=CC(=O)C=C1CC[C@@H]1[C@@H]2[C@@H](O)C[C@@]2(C)[C@H]1CC[C@]2(O)C(=O)CO` [prednisolone], in the assay on IGFBP1, the IGFBP1 entry is reported as “reduces”. Moreover, in the assay with IGFBP2, the IGFBP2 result is on record as “reduces”. Besides, in the assay with IGF1, the “serum IGF1 concentration” value was “increases”.
